Among the test systems are UO-31; OVCAR-5; K562; HCT-116; SK-MEL-2; UACC-257; NCI-H460; HL-60; U-251; SW-620; SN12C; COLO 205; Malme-3M; SF-295; PC-3; SNB-19; NCI-H226; MCF7; SF-539; NCI-H522.
Assay in all cases: NCI anticancer screen, dose series, 48 h

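In this assay, cells in 96-well plates receive the compound at five concentrations for 48 hours. Endpoints are linearly interpolated between the surrounding concentrations. Here, GI50 denotes the concentration required for 50% inhibition of growth.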 The source made the active and inactive calls. Cut-off read from the data, not from the text of the source: active = GI50 up to about 1.1 µM and inactive = higher. Where a SMILES comes first, the peptide text is derived from it. The star is where a group is joined. Fmoc = O=C(OCC1c2ccccc2-c2ccccc21)*; OBn = c1ccc(CO*)cc1; tBu = CC(C)(C)*

Turning to `CC(OC(C)(C)C)C(NC(=O)OCC1c2ccccc2-c2ccccc21)C(=O)NC(Cc1ccccc1)C(=O)OCc1ccccc1` (stereo not given) (Fmoc-Thr(tBu)-Phe-OBn; configuration not given here), the GI50 in the test with UO-31 was > 46.6 µM (inactive); with OVCAR-5 it was > 100 µM (inactive); with K562 it was > 100 µM (inactive); in the test on HCT-116, > 100 µM (inactive); with SK-MEL-2, > 100 µM (inactive); in the test with UACC-257, > 100 µM (inactive). In addition, the GI50 in the test on NCI-H460, with HL-60, in the test with U-251, with SW-620, in the test with SN12C and in the test with COLO 205 was > 100 µM (inactive) in each case. The GI50 with Malme-3M, in the test with SF-295, in the test with PC-3, with SNB-19, in the test with NCI-H226 and with MCF7 was > 100 µM (inactive) each time. For the same compound, the GI50 in the test on SF-539 and in the test with NCI-H522 was > 100 µM (inactive) throughout.

On to `Cc1cc2cc3cc(C)c(N)cc3nc2cc1N` [ACRIDINE YELLOW], for which the GI50 with UO-31 is 0.979 µM (active); in the test on OVCAR-5, 0.798 µM (active); with K562 it was 0.687 µM (active); with HCT-116, 0.208 µM (active); in the test with SK-MEL-2, 3.88 µM (inactive); in the test with UACC-257, 3.85 µM (inactive). For the same compound, the GI50 in the test on NCI-H460 was 0.358 µM (active); in the test on HL-60, 0.789 µM (active); in the test with U-251 it was 0.863 µM (active); in the test with SW-620, 0.321 µM (active); in the test with SN12C, 0.448 µM (active); with COLO 205 it was 0.757 µM (active). Further, the GI50 in the test on Malme-3M was 1.26 µM (inactive); in the test on SF-295, 0.693 µM (active); with PC-3, 1.06 µM (active); with SNB-19, 0.716 µM (active); in the test with NCI-H226, 0.869 µM (active); with MCF7, 0.475 µM (active). Besides, the GI50 in the test with SF-539 is 1.01 µM (active); with NCI-H522 it was 0.271 µM (active).

Source of the values: ChEMBL document CHEMBL1201862, “PubChem BioAssay data set” (2004).
